# Measurements as given in ChEMBL document CHEMBL5532643, “Design and synthesis of etrasimod derivatives as potent antibacterial agents against Gram-positive bacteria” (Eur J Med Chem, 2024).
# Values joined by “and” are separate entries in the source; they are usually repeats but may differ in a detail not shown here. Equal values may be shown once. Active and inactive are the calls of the source. The rule behind the calls is not given here.
# What was measured:
# Staphylococcus aureus [1] = assay: Synergistic antibacterial activity against Staphylococcus aureus ATCC 25923 assessed as fractional inhibitory concentration index incubated for 18 to 20 hrs in presence of ciprofloxacin by checkboard assay; format: functional; conditions: time 18-20 hrs
# [2] = test system: Staphylococcus epidermidis; assay: Antibacterial activity against Staphylococcus epidermidis RP62A assessed as reduction in bacterial growth incubated for 18 to 20 hrs by broth microdilution assay; format: functional; conditions: time 18-20 hrs
# [3] = Hemolytic activity in mouse RBC assessed as hemolysis at 125 uM incubated for 1 hr; format: toxicity, cell-based, Erythrocyte; conditions: mouse red blood cells (erythrocytes), read-out: Activity
# Staphylococcus aureus [4] = assay: Antibacterial activity against Staphylococcus aureus ATCC 25923 assessed as reduction in bacterial growth incubated for 18 to 20 hrs by broth microdilution assay; format: functional; conditions: time 18-20 hrs
# Staphylococcus aureus [5] = assay: Synergistic antibacterial activity against methicillin-resistant Staphylococcus aureus ATCC 43300 assessed as fractional inhibitory concentration index incubated for 18 to 20 hrs in presence of ciprofloxacin by checkboard assay; format: functional; conditions: time 18-20 hrs
# Enterococcus faecalis [6] = assay: Synergistic antibacterial activity against Enterococcus faecalis ATCC 29212 assessed as fractional inhibitory concentration index incubated for 18 to 20 hrs in presence of ciprofloxacin by checkboard assay; format: functional; conditions: time 18-20 hrs
# Staphylococcus aureus [7] = assay: Bactericidal activity against Staphylococcus aureus ATCC 25923 assessed as log reduction in colony forming units at 0.5 to 8 times MIC measured after 6 hrs by time kill-assay; format: functional
# Staphylococcus aureus [8] = assay: Synergistic antibacterial activity against methicillin-resistant Staphylococcus aureus ATCC 43300 assessed as ciprofloxacin MIC incubated for 18 to 20 hrs by checkboard assay; format: functional; conditions: time 18-20 hrs
# Staphylococcus aureus [9] = assay: Synergistic antibacterial activity against methicillin-resistant Staphylococcus aureus ATCC 43300 incubated for 18 to 20 hrs in presence of ciprofloxacin by checkboard assay; format: functional; conditions: time 18-20 hrs
# Cell membrane [10] = assay: Induction of cell membrane damage in Staphylococcus aureus ATCC 25923 at 8 times MIC incubated for 2 hrs by scanning electron microscopic analysis; format: cell membranes
# Staphylococcus aureus [11] = assay: Bactericidal activity against methicillin-resistant Staphylococcus aureus assessed as reduction in bacterial growth at 0.5 to 8 times MIC incubated for 24 hrs by time-kill assay; format: functional
# Staphylococcus aureus [12] = assay: Synergistic antibacterial activity against Staphylococcus aureus ATCC 25923 assessed as fractional inhibitory concentration index incubated for 18 to 20 hrs in presence of linezolid by checkboard assay; format: functional; conditions: time 18-20 hrs
# [13] = Selectivity index, ratio of CC50 for cytotoxicity against human THP-1 cells assessed as reduction in cell viability to MIC for antibacterial activity against Staphylococcus aureus assessed as reduction in bacterial growth; format: toxicity, cell-based; conditions: read-out: Selectivity Index
# [14] = Selectivity index, ratio of CC50 for cytotoxicity against human THP-1 cells assessed as reduction in cell viability to MIC for antibacterial activity against methicillin-resistant Enterococcus faecalis assessed as reduction in bacterial growth; format: toxicity, cell-based; conditions: read-out: Selectivity Index
# [15] = Selectivity index, ratio of CC50 for cytotoxicity against human THP-1 cells assessed as reduction in cell viability to MIC for antibacterial activity against methicillin-resistant Enterococcus faecium assessed as reduction in bacterial growth; format: toxicity, cell-based; conditions: read-out: Selectivity Index
# [16] = Selectivity index, ratio of CC50 for cytotoxicity against human THP-1 cells assessed as reduction in cell viability to MIC for antibacterial activity against methicillin-resistant Staphylococcus aureus assessed as reduction in bacterial growth; format: toxicity, cell-based; conditions: read-out: Selectivity Index
# Staphylococcus aureus [17] = assay: Synergistic antibacterial activity against Staphylococcus aureus ATCC 25923 incubated for 18 to 20 hrs in presence of ciprofloxacin by checkboard assay; format: functional; conditions: time 18-20 hrs
# Staphylococcus aureus [18] = assay: Synergistic antibacterial activity against methicillin-resistant Staphylococcus aureus ATCC 43300 incubated for 18 to 20 hrs in presence of gentamicin by checkboard assay; format: functional; conditions: time 18-20 hrs
# Staphylococcus aureus [19] = assay: Bactericidal activity against Staphylococcus aureus ATCC 25923 at 4 times MIC measured after 6 hrs by time kill-assay; format: functional, organism-based
# Enterococcus faecalis [20] = assay: Synergistic antibacterial activity against Enterococcus faecalis ATCC 29212 incubated for 18 to 20 hrs in presence of gentamicin by checkboard assay; format: functional; conditions: time 18-20 hrs
# Staphylococcus aureus [21] = assay: Synergistic antibacterial activity against Staphylococcus aureus ATCC 25923 incubated for 18 to 20 hrs in presence of vancomycin by checkboard assay; format: functional; conditions: time 18-20 hrs
# Pseudomonas aeruginosa = assay: Antibacterial activity against Pseudomonas aeruginosa ATCC 15442 assessed as reduction in bacterial growth incubated for 18 to 20 hrs by broth microdilution assay; format: functional; conditions: time 18-20 hrs
# A549 = assay: Cytotoxicity against human A549 cells assessed as reduction in cell viability incubated for 24 hrs by resazurin staining based analysis; format: functional
# Staphylococcus aureus [22] = assay: Antibiofilm activity against Staphylococcus aureus ATCC 25923 assessed as inhibition of biofilm biomass at 100 uM incubated for 18 to 20 hrs by crystal violet staining based assay; format: functional; conditions: time 18-20 hrs
# Enterococcus faecalis [23] = assay: Synergistic antibacterial activity against Enterococcus faecalis ATCC 29212 assessed as ciprofloxacin MIC incubated for 18 to 20 hrs by checkboard assay; format: functional; conditions: time 18-20 hrs
# Staphylococcus aureus [24] = assay: Bactericidal activity against Staphylococcus aureus ATCC 25923 assessed as reduction in viable bacterial count incubated for 2 hrs by time-kill assay; format: functional, organism-based
# Staphylococcus aureus [25] = assay: Synergistic antibacterial activity against methicillin-resistant Staphylococcus aureus ATCC 43300 assessed as vancomycin MIC incubated for 18 to 20 hrs by checkboard assay; format: functional; conditions: time 18-20 hrs
# Staphylococcus aureus [26] = assay: Bactericidal activity against Staphylococcus aureus ATCC 25923 assessed as log reduction in colony forming units at 4 to 8 times MIC measured after 1 to 2 hrs by time kill-assay; format: functional; conditions: time 1-2 hrs
# Enterococcus faecalis [27] = assay: Synergistic antibacterial activity against Enterococcus faecalis ATCC 29212 assessed as fractional inhibitory concentration index incubated for 18 to 20 hrs in presence of gentamicin by checkboard assay; format: functional; conditions: time 18-20 hrs
# Staphylococcus aureus [28] = assay: Synergistic antibacterial activity against Staphylococcus aureus ATCC 25923 assessed as ciprofloxacin MIC incubated for 18 to 20 hrs by checkboard assay; format: functional; conditions: time 18-20 hrs
# Staphylococcus aureus [29] = assay: Synergistic antibacterial activity against Staphylococcus aureus ATCC 25923 assessed as fractional inhibitory concentration index incubated for 18 to 20 hrs in presence of vancomycin by checkboard assay; format: functional; conditions: time 18-20 hrs
# [30] = Selectivity index, ratio of CC50 for cytotoxicity against human THP-1 cells assessed as reduction in cell viability to MIC for antibacterial activity against methicillin-resistant Staphylococcus epidermidis assessed as reduction in bacterial growth; format: toxicity, cell-based; conditions: read-out: Selectivity Index
# Staphylococcus aureus [31] = assay: Synergistic antibacterial activity against methicillin-resistant Staphylococcus aureus ATCC 43300 incubated for 18 to 20 hrs in presence of linezolid by checkboard assay; format: functional; conditions: time 18-20 hrs
# Cell membrane [32] = assay: Induction of cell membrane permeability in Staphylococcus aureus ATCC 25923 assessed as increase in fluorescence intensity at 4 times MIC incubated for 30 mins by PI staining based analysis; format: cell membranes
# Staphylococcus aureus [33] = assay: Antimicrobial activity against Staphylococcus aureus ATCC 25923 infected in Caenorhabditis elegans AU37 assessed as reduction in number of viable bacteria at 20 uM incubated for 18 hrs; format: functional, organism-based
# Staphylococcus aureus [34] = assay: Bactericidal activity against Staphylococcus aureus ATCC 25923 assessed as reduction in bacterial growth at 0.5 to 8 times MIC incubated for 24 hrs by time-kill assay; format: functional
# Staphylococcus aureus [35] = assay: Synergistic antibacterial activity against Staphylococcus aureus ATCC 25923 assessed as gentamicin MIC incubated for 18 to 20 hrs by checkboard assay; format: functional; conditions: time 18-20 hrs
# Staphylococcus aureus [36] = assay: Synergistic antibacterial activity against methicillin-resistant Staphylococcus aureus ATCC 43300 assessed as fractional inhibitory concentration index incubated for 18 to 20 hrs in presence of linezolid by checkboard assay; format: functional; conditions: time 18-20 hrs
smiles,measurement,setting,value
O=C(O)c1cc2cc(OCc3ccc(C4CCCCC4)c(C(F)(F)F)c3)ccc2[nH]1,fractional inhibitory concentration index (FICI),Staphylococcus aureus [1],0.625
same,MIC,[2],2.5 µM
same,"hemolysis at 1 h, 125 µM",[3],57%
same,MIC,Staphylococcus aureus [4],5 µM and 2.1 µg/mL
same,fractional inhibitory concentration index (FICI),Staphylococcus aureus [5],1
same,fractional inhibitory concentration index (FICI),Enterococcus faecalis [6],0.75
same,log(activity),Staphylococcus aureus [7],>3
same,MIC,Staphylococcus aureus [8],1.25 µM
same,MIC,Staphylococcus aureus [9],1.25 µM
same,Activity,Cell membrane [10],inactive
same,MBC,Staphylococcus aureus [11],5 µM
same,fractional inhibitory concentration index (FICI),Staphylococcus aureus [12],1
same,selectivity ratio,[13],> 12
same,selectivity ratio,[14],> 12
same,selectivity ratio,[15],> 12
same,selectivity ratio,[16],> 12
same,MIC,Staphylococcus aureus [17],2.5 µM
same,MIC,Staphylococcus aureus [18],0.625 µM
same,Activity,Staphylococcus aureus [19],Active
same,MIC,Enterococcus faecalis [20],1.25 µM
same,MIC,Staphylococcus aureus [21],2.2 µM
same,MIC,Pseudomonas aeruginosa,> 200 µM
same,CC50,A549,> 100 µM
same,inhibition at 100 µM,Staphylococcus aureus [22],> 90%
same,MIC,Enterococcus faecalis [23],1.25 µM
same,Activity,Staphylococcus aureus [24],Dose-Dependent Effect
same,MIC,Staphylococcus aureus [25],1.25 µM
same,log(activity),Staphylococcus aureus [26],>3
same,fractional inhibitory concentration index (FICI),Enterococcus faecalis [27],0.375
same,MIC,Staphylococcus aureus [28],0.312 µM
same,fractional inhibitory concentration index (FICI),Staphylococcus aureus [29],0.75
same,selectivity ratio,[30],> 12
same,MIC,Staphylococcus aureus [31],1.25 µM
same,Activity,Cell membrane [32],inactive
same,Activity,Staphylococcus aureus [33],Active
same,MBC,Staphylococcus aureus [34],5 µM
same,MIC,Staphylococcus aureus [35],0.5 µg/mL
same,fractional inhibitory concentration index (FICI),Staphylococcus aureus [36],1
